The nature of data set [1]: Pharmacokinetic profile in mice, plasma and brain, oral administration. Format: in vivo, C57BL6 mice. The following applies: 10 mg/kg; for AUC(0-inf) / half-life / Cmax / Kp: C57BL6, mouse; for Kp: brain/plasma, read-out: Brain to Plasma AUC ratio, mean ratio. How it is done: In order to investigate the pharmacokinetics (PK) properties of the compound of Example 1 and the compounds of comparative examples, the following experiment was performed. In order to perform the PK test for the compound of Example 1 and the compounds of the comparative examples ([…]), about 7 week-old C57BL6 mice were prepared, 12 individuals were assigned per administered substance, separated into groups, and starved for oral administration. On the day of administration, a drug solution was prepared at a concentration of 1 mg/mL by using distilled water (DW) as a vehicle and was orally administered at […] body weight of each individual, and the final dose was 10 mg/kg. At 1, 3, 8, and 24 hours after the administration, whole blood was collected through cardiac blood collection from each of the 3 individuals in each group and then placed in a heparin tube to prevent coagulation. Thereafter, the cerebrum of each individual was collected and placed in an EP tube, the weight of the tissue was measured, and frozen storage was performed at -20° C. […] In this case, AN included an internal standard. […] After 0.5 μL of the supernatant obtained after deproteinization was injected into LC-MS/MS, peak areas of the compounds of the example and the comparative examples ([…]) were corrected with the peak areas of IS to obtain the peak response at each sample collection point and perform the concentration conversion by a calibration curve. The pharmacokinetic parameters (Cmax, AUCinf, t1/2, and the like) were calculated by a noncompartmental analysis method by using WinNonlin 8.1 for the values of the blood concentration with time for each administration group. The pharmacokinetic characteristics of each compound were compared by comparing exposure, half-life changes, and the like for each drug administration group, and the resultant values are shown in Tables 5 and 6.

Data set [2] deals with T1, MC4R (Homo sapiens, UniProt P32245). The data set is described as follows: cAMP assay (cAMP Hunter Gs-coupled CHO-K1 cell line). Format: cell-based. Further details: expressed in transfected cells; host or cells: CHO-K1 (cAMP Hunter Gs-coupled cell line). The following applies: CHO-K1 cells overexpressing MC4R, 30 min at 37° C. The text has this:
The melanocortin receptor is a type of G-protein coupled receptor (GPCR), and the main role of G-protein is to activate secondary transducers to regulate cellular responses to many physiological stimuli through signal transduction. MC4R is a Gs-coupled receptor, and it is known that if MC4R interacts with an agonist, adenylate cyclase (AC) is activated to increase the concentration of cyclic AMP (cAMP), which is one of the secondary transducers in cells. Therefore, it is possible to evaluate the activity of melanocortin receptors by measuring the generation of cAMP signals.
After cAMP Hunter Gs-coupled cell lines (CHO-K1 cell line) in which each of MC1R, MC3R, MC4R and MCSR was overexpressed were established so that the increase in the cAMP level in cells due to agonist reaction was measurable, the cells were inoculated into each well of a white cell culture plate and incubated for 24 hours in a 37° C. incubator in the presence of 5% CO2. After the incubation, the medium was removed, and 15 μl of a 2:1 HBBS/10 mM HEPES:cAMP XS+Ab reagent was added. After 5 μl of the sample diluted 4 times with buffer was added, the vehicle concentration was set to 1%, and the MC4R agonist compound diluted at each step concentration was added, followed by reaction at 37° C. for 30 minutes. The activity (%) of each agonist compound is expressed as 100%×(average RLU value of sample−average RLU value of vehicle control)/(average RLU value of max control−average RLU value of vehicle control), and the value was analyzed by CBIS data analysis suite (ChemInnovation, CA).
On the technique in general: Changes in cAMP serve as a functional read-out for many G protein-coupled receptors.
Target sequence in this assay (P32245 whole entry, species assumed): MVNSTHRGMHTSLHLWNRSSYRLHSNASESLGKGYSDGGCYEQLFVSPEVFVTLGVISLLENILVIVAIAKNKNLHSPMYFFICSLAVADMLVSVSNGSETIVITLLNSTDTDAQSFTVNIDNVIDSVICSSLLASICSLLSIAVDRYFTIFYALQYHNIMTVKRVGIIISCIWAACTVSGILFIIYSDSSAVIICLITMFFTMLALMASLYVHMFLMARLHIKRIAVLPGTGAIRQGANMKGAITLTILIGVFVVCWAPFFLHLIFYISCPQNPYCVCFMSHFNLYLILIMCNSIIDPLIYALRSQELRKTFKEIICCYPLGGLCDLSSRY

For data set [3], the target named is T1, MC4R. As to the kind of experiment: β-arrestin assay (Pathhunter eXpress U2OS cell line). It is filed as cell-based. Also on record: expressed in transfected cells; host or cells: U2OS (Pathhunter eXpress β-arrestin cell line). The following applies: U2OS cells, 90 min at 37° C. The source says: The melanocortin receptor is a type of G-protein coupled receptor (GPCR) and regulates various physiological responses by transducing signals from many neurotransmitters. When GPCR is phosphorylated, β-arrestin is bound to the phosphorylated part of the receptor and plays an important role in activating various signaling pathways in cells through interaction with other proteins. It is known that, when the melanocortin receptor interacts with an agonist, β-arrestin is mobilized and is involved in the β-arrestin-mediated signaling pathway. Therefore, the activity of the melanocortin receptor can be evaluated through the measurement of β-arrestin.
A Pathhunter eXpress β-arrestin cell line (U2OS cell line) in which Prolink (PK)-tagged MC1R, MC3R, MC4R, MC5R and Enzyme acceptor (EA)-tagged β-arrestin were expressed together was established. When the MCR-PK portion of this cell line is activated, β-arrestin-EA is mobilized, and enzyme acceptor (EA) and Prolink (PK), which are the β-galactosidase enzyme fragments, interact. The activated enzyme hydrolyzes the substrate by β-galactosidase activity to produce a chemiluminescent signal, so that the activity can be measured. After the Pathhunter eXpress β-arrestin cell line (U2OS cell line) was incubated, the cells were inoculated into each well of the cell culture plate and incubated for 48 hours in a 37° C. incubator in the presence of 5% CO2. After the incubation, 5 μl of the sample diluted 5 times with buffer was added, the vehicle concentration was set to 1%, and the MC4R agonist compound diluted at each step concentration was added, followed by reaction at 37° C. for 90 minutes. The activity (%) of each agonist compound is expressed as 100%×(average RLU value of sample−average RLU value of vehicle control)/(average maximum value of control ligand−average RLU value of vehicle control), and the value was analyzed by CBIS data analysis suite (ChemInnovation, CA).
Target sequence in this assay (P32245 whole entry): as the sequence (P32245 whole entry, species assumed) above
Target sequence in this assay (P32121 whole entry partner): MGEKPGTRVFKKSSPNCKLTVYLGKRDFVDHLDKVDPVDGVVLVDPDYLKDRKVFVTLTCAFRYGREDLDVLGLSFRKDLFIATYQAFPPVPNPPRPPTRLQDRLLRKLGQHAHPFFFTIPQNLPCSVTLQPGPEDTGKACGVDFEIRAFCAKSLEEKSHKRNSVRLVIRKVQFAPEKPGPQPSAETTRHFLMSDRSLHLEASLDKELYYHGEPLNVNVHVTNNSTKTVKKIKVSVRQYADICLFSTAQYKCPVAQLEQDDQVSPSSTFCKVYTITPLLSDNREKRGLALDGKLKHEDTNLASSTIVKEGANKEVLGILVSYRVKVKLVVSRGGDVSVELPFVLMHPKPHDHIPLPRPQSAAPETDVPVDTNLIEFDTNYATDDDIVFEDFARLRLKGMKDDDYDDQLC

Where [4] appears, read: brain, read-out: t1/2, Brain (converted).
The mark [5] stands for this setting: plasma, read-out: AUCinf, Plasma.
The mark [6] stands for this setting: plasma, read-out: t1/2, Plasma (converted).

Like-named read-outs stand apart in the source and are kept apart here.

For the molecule `CC(=O)N(C1CCC(C)(C)CC1)[C@H]1C[C@@H](C(=O)N2CCOCC2)N(C(=O)[C@@H]2CN(C(C)(C)C)C[C@H]2c2ccc(F)cc2F)C1.Cl` [Comparative Example 1 (A95), N-((3S,5S)-1-((3S,4R)-1-(tert-butyl)-4-(2,4-difluorophenyl)pyrrolidine-3-carbonyl)-5-(morpholine-4-carbonyl)pyrrolidin-3-yl)-N-(4,4-dimethylcyclohexyl)acetamide hydrochloride], in data set [1] (brain), the “Cmax, Brain” value was found to be 20 ng/mL. Moreover, the AUC(0-inf) in data set [1] (brain, read-out: AUCinf, Brain) worked out at 222 ng·h/mL; in data set [1] (setting [5]), 565 ng·h/mL. Moreover, the half-life is 360 min in data set [1] (setting [4]) and 162 min in data set [1] (setting [6]). In data set [1] (plasma), this molecule showed a Cmax of 205 ng/mL. In addition, in data set [1], the Kp was found to be 0.39. Further, the EC50 at MC4R [2] is 335 nM; on MC4R [3], 176 nM.
Consider `CC(=O)N(C1CCC(C)(C)CC1)[C@H]1C[C@@H](C(=O)N2CCOCC2)N(C(=O)[C@@H]2CN(C(C)(C)C)C[C@H]2c2ccc(Cl)cc2)C1.Cl` [Comparative Example 2 (A96), N-((3S,5S)-1-((3S,4R)-1-(tert-butyl)-4-(4-chlorophenyl)pyrrolidine-3-carbonyl)-5-(morpholine-4-carbonyl)pyrrolidin-3-yl)-N-(4,4-dimethylcyclohexyl)acetamide hydrochloride], for which, in data set [1] (brain), the “Cmax, Brain” value came out at 27.1 ng/mL. Further, the AUC(0-inf) worked out at 530 ng·h/mL in data set [1] (brain, read-out: AUCinf, Brain) and 1650 ng·h/mL in data set [1] (setting [5]). The half-life is 480 min in data set [1] (setting [4]) and 156 min in data set [1] (setting [6]). This molecule also gave a Cmax in data set [1] (plasma) of 337 ng/mL. In addition, the Kp in data set [1] is 0.32. Besides, the half-maximal effective concentration (EC50) on MC4R [2] was determined as 150 nM; on MC4R [3], 44.3 nM.
In the case of `CC(C)C(=O)N([C@H]1C[C@@H](C(=O)N2CCOCC2)N(C(=O)[C@@H]2CN(C(C)(C)C)C[C@H]2c2ccc(Cl)cc2)C1)[C@H]1CC[C@@H](C)CC1.Cl` [Example 1, N-((3S,5S)-1-((3S,4R)-1-(tert-butyl)-4-(4-chlorophenyl)pyrrolidine-3-carbonyl)-5-(morpholine-4-carbonyl)pyrrolidin-3-yl)-N-((1s,4R)-4-methylcyclohexyl)isobutyramide hydrochloride], the “Cmax, Brain” value in data set [1] (brain) is 49.1 ng/mL. Besides, the AUC(0-inf) was 1500 ng·h/mL in data set [1] (brain, read-out: AUCinf, Brain) and 2070 ng·h/mL in data set [1] (setting [5]). In addition, the half-life in data set [1] (setting [4]) was 1140 min; in data set [1] (setting [6]) it was 234 min. The highest level in data set [1] (plasma) (Cmax) was 232 ng/mL. In addition, the Kp in data set [1] turned out to be 0.72. Further, the values for the EC50 on MC4R [2] and on MC4R [3] were 36.5 nM and 4.6 nM, respectively.

One may read the Cmax as the highest concentration seen after dosing. The EC50 is the midpoint of the concentration-response curve. A high value points to lower potency in that assay.
